Patent publication US20120148685A1, “METHODS AND COMPOSITIONS FOR TREATING INSULIN RESISTANCE, DIABETES MELLITUS TYPE 2, METABOLIC SYNDROME AND RELATED DISORDERS” (Engergy4Life AG, priority 2009, published 2012)
Marks after values point to notes of the source that are not given here.

Key:
[1] = Feed intake, body weight development and feed conversion ratio of Zucker rats fed supplemented diets; format: in vivo
Text: Zucker rats are an established model of human early-onset, hyperplastic-hypertrophic obesity and insulin resistance as well as human non-insulin dependent diabetes mellitus.
(§1) A total of 60 male, 8-10 week old, obese (fa/fa) Zucker rats (Crl:ZUC-Leprfa; Charles River, France) with an initial body weight of 358±24 (mean±SD) g were randomly assigned to five groups of twelve rats each. In addition, 12 male, 8-10 week old, heterozygous lean (fa/+) Zucker rats with an initial body weight of 271±10 g were used as a lean control group. All rats were kept individually in Macrolon cages in a room maintained at 22±1° C. and 50-60% relative humidity with lighting from 06.00 to 18.00 hours. All experimental procedures described followed established guidelines for the care and handling of laboratory animals and were approved by the local Animal Care and Use Committee.
(§2) The rats were fed semi-purified diets which were composed according to the recommendations of the American Institute of Nutrition (AIN)-93G. Five different diets were used differing in their supplementation. […] Diets were prepared by mixing the dry components and subsequent pelleting with a standard pelleting device (Kahl Laborpressanlage Typ 14-175; Reinbek, Germany). Feed was administered ad libitum, and feed intake was recorded weekly. Experimental diets were fed for 4 weeks. Water was available ad libitum from nipple drinkers during the whole experiment.

[2] = Organ weights of the rats; format: in vivo; conditions: obese (fa/fa) Zucker rats, supplemented diet fed 4 wk, means ± SD (n = 12)
Description: (§3) All rats were kept individually in Macrolon cages in a room maintained at 22±1° C. and 50-60% relative humidity with lighting from 06.00 to 18.00 hours. All experimental procedures described followed established guidelines for the care and handling of laboratory animals and were approved by the local Animal Care and Use Committee.
(§4) Five different diets were used differing in their supplementation. […] Feed was administered ad libitum, and feed intake was recorded weekly. Experimental diets were fed for 4 weeks. Water was available ad libitum from nipple drinkers during the whole experiment.

[3] = Plasma and lipoprotein lipid concentrations (triacylglycerol, cholesterol; enzymatic kits); format: in vivo, Zucker rats
Description: as §1, §2
(§5) The rats were decapitated under CO2 anesthesia in the fasted state. Whole blood was collected into EDTA polyethylene tubes (Sarstedt, Nürnbrecht, Germany). Plasma was separated from whole blood by centrifugation (1,100×g; 10 min) at 4° C. Lipoproteins [VLDL, LDL and high-density lipoproteins (HDL)] were separated by step-wise ultracentrifugation (900,000×g, 1.5 h, 4° C.; Mikro-Ultrazentrifuge, Sorvall Products, Bad Homburg, Germany). All samples were stored at −20° C. pending analysis.
Triacylglycerol and cholesterol concentrations in plasma and lipoproteins were determined using enzymatic reagent kits from Biocon (Vöhl-Marienhagen, Germany).

[4] = Fasting glucose concentration in plasma; format: in vivo, Zucker rats
Description: as §1, §2, §5
Glucose concentration in plasma was determined by an enzymatic reagent kit from Analyticon Biotechnologies (Lichtenfels, Germany).

[5] = Non-esterified fatty acids (NEFA) in plasma; format: in vivo, Zucker rats
Description: as §1, §2, §5
NEFA concentrations in plasma were determined using the NEFA kit from Wako Chemicals (Neuss, Germany).

[6] = test system: leptin; assay: Leptin in plasma (rat ELISA); format: in vivo, Zucker rats
Description: as §1, §2, §5
(§6) Concentrations of leptin in plasma was determined by rat ELISA kits from BioVendor (Heidelberg, Germany). Concentration of high molecular weight adiponectin was determined by a rat ELISA kit from Shibayagi (Ishihara, Shibukawa, Gunma, Japan).

[7] = test system: high molecular weight adiponectin; assay: High molecular weight adiponectin in plasma (rat ELISA); format: in vivo; conditions: obese (fa/fa) Zucker rats, supplemented diet 4 wk, fasted, means ± SD (n = 12)
Description: as §1, §2, §5, §6

[8] = test system: sterol regulatory element-binding protein (SREBP)-1c; assay: Relative mRNA concentration in liver, lipogenesis: SREBP-1c; format: in vivo, Zucker rats
Description: as §3, §4

[9] = test system: fatty acid synthase (FAS); assay: Relative mRNA concentration in liver, lipogenesis: FAS; format: in vivo, Zucker rats
Description: as §3, §4

[10] = test system: stearoyl-CoA desaturase (SCD); assay: Relative mRNA concentration in liver, lipogenesis: SCD; format: in vivo; conditions: liver of obese Zucker rats, diet 4 wk, obese control = 1.00, means ± SD (n = 12)
Description: as §3, §4

[11] = test system: fatty acid binding protein (FABP); assay: Relative mRNA concentration in liver, fatty acid uptake: FABP; format: in vivo, Zucker rats
Description: as §3, §4

[12] = test system: fatty acid transport protein (FATP); assay: Relative mRNA concentration in liver, fatty acid uptake: FATP; format: in vivo; conditions: liver of obese Zucker rats, diet 4 wk, obese control = 1.00, means ± SD (n = 12)
Description: as §3, §4

[13] = test system: scavenger receptor CD36; assay: Relative mRNA concentration in liver, fatty acid uptake: CD36; format: in vivo; conditions: liver of obese Zucker rats, diet 4 wk, obese control = 1.00, means ± SD (n = 12)
Description: as §3, §4

[14] = test system: lipoprotein lipase (LPL); assay: Relative mRNA concentration in liver, fatty acid uptake: LPL; format: in vivo; conditions: liver of obese Zucker rats, diet 4 wk, obese control = 1.00, means ± SD (n = 12)
Description: as §3, §4

[15] = test system: acyl-CoA oxidase (ACO); assay: Relative mRNA concentration in liver, fatty acid oxidation: ACO; format: in vivo; conditions: liver of obese Zucker rats, diet 4 wk, obese control = 1.00, means ± SD (n = 12)
Description: as §3, §4

[16] = test system: liver-type carnitine-palmitoyltransferase (L-CPT) I; assay: Relative mRNA concentration in liver, fatty acid oxidation: L-CPT I; format: in vivo; conditions: liver of obese Zucker rats, diet 4 wk, obese control = 1.00, means ± SD (n = 12)
Description: as §3, §4

[17] = obese (fa/fa) Zucker rats, supplemented diet fed 4 wk, means ± SD (n = 12)
[18] = within the obese rats, in words, P<0.05 where different
[19] = obese (fa/fa) Zucker rats, supplemented diet 4 wk, fasted, means ± SD (n = 12)
[20] = within the obese rats, in words, P<0.05
[21] = liver of obese Zucker rats, diet 4 wk, obese control = 1.00, means ± SD (n = 12)

SMILES: C[N+](C)(C)CC(O)CC(=O)[O-] (stereo not drawn) [carnitine]
- Daily body weight gain [1, 17]: 4.85 ± 0.48 ^a g
- Feed conversion ratio [1, 17]: 5.18 ± 0.63 ^bc g/g
- Feed intake [1, 17]: 25.1 ± 3.4 ^b g/d
- Final body weight [1, 17]: 496 ± 31 ^a g
- Total body weight gain [1, 17]: 138 ± 13 ^a g
- Daily feed intake compared with the obese control group [1, 18]: did not differ
- Feed conversion ratio compared with the obese control group [1, 18]: did not differ much
- Absolute organ weights: Heart [2]: 1.36 ± 0.12 g
- Absolute organ weights: Kidney [2]: 2.75 ± 0.66 g
- Absolute organ weights: Liver [2]: 25.0 ± 2.8 ^a g
- Relative organ weights: Heart [2]: 2.73 ± 0.15 ^b mg/g body weight
- Relative organ weights: Kidney [2]: 5.52 ± 1.17 mg/g body weight
- Relative organ weights: Liver [2]: 50.4 ± 4.4 ^a mg/g body weight
- Cholesterol, HDL [3, 19]: 4.64 ± 0.50 ^a mmol/L
- Cholesterol, Plasma [3, 19]: 7.68 ± 0.92 ^ab mmol/L
- Cholesterol, VLDL + LDL [3, 19]: 3.12 ± 0.39 ^b mmol/L
- Triacylglycerols, Plasma [3, 19]: 4.41 ± 0.85 ^c mmol/L
- Triacylglycerols, VLDL + LDL [3, 19]: 2.65 ± 0.57 ^b mmol/L
- TAG concentration in plasma compared with the niacin+DHA+carnitine group [3, 20]: lower
- TAG concentrations in plasma compared with the control group [3, 20]: lower
- Cholesterol in the VLDL+LDL fraction compared with the obese control group [3, 18]: did not differ
- TAG concentration in the VLDL+LDL fraction compared with the obese control group [3, 18]: did not differ
- Glucose in plasma [4, 19]: 7.86 ± 0.75 ^ab mmol/L
- Fasting glucose concentration compared with the obese control group [4, 18]: did not differ
- NEFA in plasma [5, 19]: 2.41 ± 0.57 ^b mmol/L
- NEFA concentrations in plasma compared with the obese control group [5, 20]: lower
- Leptin in plasma [6, 19]: 6.09 ± 1.29 ^bc ng/mL
- Leptin concentrations in plasma compared with the obese control group [6, 18]: did not differ
- Adiponectin in plasma [7]: 122 ± 12 ng/mL
- Relative mRNA concentration, SREBP-1c [8, 21]: 0.78 ± 0.31 ^ab
- Relative mRNA concentration of SREBP-1c in the liver compared with the obese control group [8, 18]: did not differ
- Gene expression of fatty acid synthase ([9]; conclusions, liver of obese diabetic rats, in words): lowered
- Relative mRNA concentration, FAS [9, 21]: 0.53 ± 0.49 ^b
- Relative mRNA concentration of FAS in the liver compared with the obese control group [9, 18]: lower
- Relative mRNA concentration, SCD [10]: 0.99 ± 0.33 ^a
- Relative mRNA concentration of FABP in the liver compared with the other groups ([11]; in words, P<0.05 where different): did not differ
- Relative mRNA concentration, FABP [11, 21]: 0.83 ± 0.29 ^ab
- Relative mRNA concentration, FATP [12]: 0.93 ± 0.76
- Relative mRNA concentration, CD36 [13]: 0.87 ± 0.22 ^a
- Relative mRNA concentration, LPL [14]: 1.04 ± 0.20
- Relative mRNA concentration, ACO [15]: 1.15 ± 0.37
- Relative mRNA concentration, L-CPT I [16]: 1.15 ± 0.41
